Results as given in patent publication US8227506B2, “Benzamidine compound” (Ajinomoto., Inc., priority 2005, dated 2012).

Legend:
[1] = molecular target: activated factor IIa (thrombin) (Homo sapiens, UniProt P00734); assay: Determination of activated factor II (FIIa, thrombin)-inhibitory activity (chromogenic substrate S-2238); format: biochemical; details: negative logarithm of the concentration suppressing 50% of the reaction rate of the control, 0.125 U/ml thrombin
Description: Determination of Activated Factor II (FIIa, Thrombin)-Inhibitory Activity
(§1) Using a 96 well plate (#3396, Costar), 0.125 U/ml activated factor IIa (thrombin) (10 μL) and a test compound (10 μL) were blended with 100 mM Tris-HCl buffer (130 μL) containing 0.02% Tween 20, 0.1% PEG6000 and 0.2 M NaCl for 10 minutes, and a substrate for color development (0.1 mM S-2238 50 μL) was added thereto. Using a Microplate reader Benchmark Plus (BIO-RAD), the reaction rate was measured from the time course changes at absorbance 405 nm. The reaction rate of the control was taken as 100% and the negative logarithm of the concentration capable of suppressing 50% of the reaction rate of the control was taken as the pIC50 value.

[2] = Evaluation of stability in plasma; format: in vitro ADME; details: disappearance half-life in human plasma, 37° C., final drug concentration 10 μM, HPLC
Description: Evaluation of Stability in Plasma
A […] solution (5 μl) of the test compound was added to human plasma (495 μl) (final drug concentration, 10 μM), and the mixture was incubated at 37° C. Samples (each 50 μl) were taken at 0 minutes, 3 minutes, 10 minutes, and 20 minutes after addition of the drug solution, diluted with distilled water (50 μl), and the reaction was quenched by adding 100% acetonitrile (300 μl) and blending them. After deproteinization by centrifugation at 15000 rpm for 5 minutes, the mixture was concentrated to dryness by a centrifugal evaporator. The sample was dissolved in 120 μl of 0.1% aqueous TFA, the peak area or height of the test compound was calculated by HPLC, and the disappearance half-life was determined.

[3] = molecular target: FXa (Homo sapiens, UniProt P00742); assay: Determination of activated factor X activity-inhibitory activity (chromogenic substrate S-2222); format: biochemical; details: negative logarithm of the concentration suppressing 50% of the reaction rate of the control, 0.015 U/ml FXa
FXa, sequence (P00742 235-488 limits assumed): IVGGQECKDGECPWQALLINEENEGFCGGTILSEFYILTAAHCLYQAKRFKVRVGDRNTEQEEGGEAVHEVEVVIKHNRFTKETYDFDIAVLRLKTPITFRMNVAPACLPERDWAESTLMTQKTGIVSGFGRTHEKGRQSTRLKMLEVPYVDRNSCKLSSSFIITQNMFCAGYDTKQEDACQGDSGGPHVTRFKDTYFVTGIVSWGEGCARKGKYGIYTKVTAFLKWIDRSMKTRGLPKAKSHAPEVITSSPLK
FXa, sequence (P00742 41-179 partner limits assumed): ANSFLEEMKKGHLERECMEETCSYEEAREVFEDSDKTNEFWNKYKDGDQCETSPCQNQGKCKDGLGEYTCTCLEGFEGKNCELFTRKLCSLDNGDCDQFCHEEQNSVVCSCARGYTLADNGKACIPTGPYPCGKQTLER
Description: Determination of Activated Factor X Activity-Inhibitory Activity
as §1, with “0.015” for “0.125”, “FXa” for “activated factor IIa (thrombin)”, “(0.2” for “(0.1”, “S-2222” for “S-2238”

[4] = test system: human plasma; assay: Determination of anticoagulant activity (aPTT measurement method); details: negative logarithm of the concentration prolonging the aPTT of the control to two-fold
Description: Determination of Anticoagulant Activity
The aPTT measurement method using an automatic blood coagulation time measuring device, Sysmex CA-3000 (TOA Medical Electronics Co., Ltd.) was performed. A solution (5 μl) of the test compound was placed in a sample tube (SU-40, TOA Medical Electronics Co., Ltd.), human plasma (hemolyance coagulation control I, iatron Laboratory, 45 μl) was added and the mixture was incubated at 37° C. for 3 minutes. To the plasma solution were added dataphay•APTT (rabbit brain-derived cephalin, DADE Behring Co., Ltd., 50 μl) and 0.02 M calcium chloride (50 μl), and the time up to the coagulation of plasma was automatically measured. The anticoagulation activity is shown as the negative logarithm of the concentration prolonging the aPTT of the control to two-fold (paPTT2).

[5] = test system: dog dialysis model; assay: Evaluation of dog dialysis model; format: in vivo, dog (Beagles)
Description: Evaluation of Dog Dialysis Model
Beagles (♂, 11 kg-15 kg, Nosan Corp., Japan) were anesthetized with pentobarbital (30 mg/kg, Tokyo Chemical Industry Co., Ltd.) by intravenous administration from the cephalic vein of the forefoot. A tracheostomy tube was inserted and artificial breathing was started. Placing needles [14G (serflow placing needle, Termo Corp.), 16G (happycath, Medikit Co., Led), 18G (serflow placing needle, Termo Corp.)] were punctured into the left femoral vein, right femoral artery, and right cephalic vein of the forefoot, respectively, and an outer shunt (Senko Medical Instrument Mfg. CO., Ltd.) filled with saline was set to the femoral vein and artery. For hemodialysis, a hemodialysis device for one person (DBG-01, Nikkiso Co., Ltd.), a hollow fiber dialyzer (FB-50, triacetate (CTA) film, Nipro Corp.) and sodium bicarbonate dialysate (AK-sorita•DL, Shimizu Corp.) were used.
The experiment was performed under the conditions of blood flow 80 ml/minute, dialysate flow 300 ml/minute, water removal amount 0 ml/minute. During dialysis, pentobarbital (12 mg/kg/hour) was continuously administered from the cephalic vein of the forefoot to maintain anesthesia. The control and test compounds were continuously administered into the arterial blood circuit (B) at 5 ml/hour. […]

N=C(N)c1cccc(OCCOC(=O)c2ccc(OC3CCN(C(=N)N)CC3)cc2)c1 [Ex. 17, 2-{3-amidinophenoxy}ethyl 4-({1-amidinopiperidin-4-yl}oxy)benzoate ditrifluoroacetate]
IC50 [1]: > 100000 nM | half-life at 10 μM [2]: 5.6 min | IC50 [3]: 63.1 nM

N=C(N)c1ccc(OCCO)c(OCCOC(=O)c2ccc(C(=N)N3CCCC3)cc2)c1 [Ex. 13, 2-[5-amidino-2-(2-hydroxyethoxy)phenoxy]ethyl 4-[imino(pyrrolidin-1-yl)methyl]benzoate ditrifluoroacetate]
IC50 [1]: 63100 nM | half-life at 10 μM [2]: 2.7 min | paPTT2 [4]: 6.4 | IC50 [3]: 15.8 nM

N#CCOc1ccc(C(=N)N)cc1OCCOC(=O)c1ccc(C(=N)N2CCCC2)cc1 [Ex. 20, 2-[5-amidino-2-(cyanomethoxy)phenoxy]ethyl 4-[imino(pyrrolidin-1-yl)methyl]benzoate ditrifluoroacetate]
IC50 [1]: 6310 nM | half-life at 10 μM [2]: 2.1 min | bleeding time ([5]; Template method, 2 hour after the start of the administration, versus control (FIG. 2)): of the same level as the control | dialysis time ([5]; up to arterial circuit pressure 300 mmHg or 4 hours after the start of the dialysis (FIG. 1)): 4 h | IC50 [3]: 12.6 nM

N=C(N)c1ccc(O)c(OCCOC(=O)c2ccc(C(=N)N3CCCC3)cc2)c1 [Ex. 6, 2-{5-amidino-2-hydroxyphenoxy}ethyl 4-[imino(pyrrolidin-1-yl)methyl]benzoate ditrifluoroacetate]
IC50 [1]: 79400 nM | half-life at 10 μM [2]: 1.6 min | paPTT2 [4]: 6 | IC50 [3]: 3.16 nM

CC(C)COc1ccc(C(=N)N)cc1OCCOC(=O)c1ccc(C(=N)N2CCCC2)cc1 [Ex. 24, 2-{5-amidino-2-isobutoxyphenoxy}ethyl 4-[imino(pyrrolidin-1-yl)methyl]benzoate ditrifluoroacetate]
IC50 [1]: 12600 nM | half-life at 10 μM [2]: 0.7 min | IC50 [3]: 39.8 nM

CC(=N)N1CCC(Oc2ccc(C(=O)OCCOc3cccc(C(=N)N)c3)cc2)CC1 [Ex. 16, 2-{3-amidinophenoxy}ethyl 4-[(1-(1-iminoethyl)piperidin-4-yl)oxy]benzoate ditrifluoroacetate]
IC50 [1]: > 100000 nM | half-life at 10 μM [2]: 1.7 min | paPTT2 [4]: 5.4 | IC50 [3]: 63.1 nM

COc1ccc(C(=N)N)cc1OCCOC(=O)c1ccc(C(=N)N2CCCC2)cc1 [Ex. 18, 2-{5-amidino-2-methoxyphenoxy}ethyl 4-[imino(pyrrolidin-1-yl)methyl]benzoate ditrifluoroacetate]
IC50 [1]: > 100000 nM | half-life at 10 μM [2]: 1.1 min | paPTT2 [4]: 5.2 | IC50 [3]: 251 nM

N=C(N)c1cccc(OCCOC(=O)c2ccc(C(=N)N3CCCC3)nc2)c1 [Ex. 37, 2-(3-amidinophenoxy)ethyl 6-[imino(pyrrolidin-1-yl)methyl]nicotinate tritrifluoroacetate]
IC50 [1]: > 100000 nM | paPTT2 [4]: 5.2 | IC50 [3]: 200 nM

CC(=O)Oc1ccc(C(=N)N)cc1OCCOC(=O)c1ccc(C(=N)N2CCCC2)cc1 [Ex. 28, 2-{2-(acetoxy)-5-amidinophenoxy}ethyl 4-[imino(pyrrolidin-1-yl)methyl]benzoate ditrifluoroacetate]
IC50 [1]: 1580 nM | half-life at 10 μM [2]: 3.5 min | IC50 [3]: 3.98 nM
